# Test results from patent US8080580B2, “Dioxa-bicyclo[3.2.1]octane-2,3,4-triol derivatives” (Pfizer Inc., priority 2008, dated 2011).
# “And” between values parts separate entries of the source, which are not always exact repeats. Equal entries are not always repeated.
# Tests used:
# human SGLT2 = molecular target: T1, human SGLT2 (Homo sapiens, UniProt P31639); experiment: SGLT2 functional assay: inhibition of AMG uptake in CHO-FlpIn cells stably expressing human SGLT2; format: cell-based; conditions: individual runs (Run No.), read-out: hSGLT2 IC50
# T1 construct: expressed in transfected cells; host or cells: CHO-FlpIn (Invitrogen)
# T1 sequence (P31639 1-672): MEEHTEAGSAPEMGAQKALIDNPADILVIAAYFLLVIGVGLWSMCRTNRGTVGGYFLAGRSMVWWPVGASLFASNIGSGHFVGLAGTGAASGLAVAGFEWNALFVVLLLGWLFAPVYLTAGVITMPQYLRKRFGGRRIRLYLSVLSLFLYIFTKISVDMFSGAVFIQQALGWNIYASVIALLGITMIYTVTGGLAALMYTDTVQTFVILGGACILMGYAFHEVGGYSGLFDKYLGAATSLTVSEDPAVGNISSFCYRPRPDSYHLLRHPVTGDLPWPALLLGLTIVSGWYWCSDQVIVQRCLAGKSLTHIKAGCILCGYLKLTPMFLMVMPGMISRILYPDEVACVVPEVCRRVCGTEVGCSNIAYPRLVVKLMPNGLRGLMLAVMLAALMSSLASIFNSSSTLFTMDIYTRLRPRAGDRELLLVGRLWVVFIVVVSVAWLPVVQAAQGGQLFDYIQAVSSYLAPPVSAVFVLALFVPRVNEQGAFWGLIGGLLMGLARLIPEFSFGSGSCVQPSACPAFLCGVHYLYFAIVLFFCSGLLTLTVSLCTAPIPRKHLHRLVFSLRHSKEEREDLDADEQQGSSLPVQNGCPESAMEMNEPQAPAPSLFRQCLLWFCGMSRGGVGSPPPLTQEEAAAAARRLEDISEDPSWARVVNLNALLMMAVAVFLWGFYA
# Excerpt: The SGLT2 functional assay was designed to detect the inhibition of methyl-alpha-D glucopyranoside (AMG—a non-metabolizable form of glucose) uptake via the SGLT2 transporter. The SGLT2 transporter recovers glucose from the proximal tubules of the kidney; its inhibition results in sugar wasted in the urine. The positive control compound, Phlorizin, is a known inhibitor of glucose uptake for SGLT2 and was used for comparing the high percent effect of SGLT2 inhibition of the test compounds.
# CHO-FlpIn (Invitrogen, Carlsbad, Calif.) cells stably expressing human SGLT2 (pcDNA5/FRT) were plated in Iso-TC 96 well plates (Perkin Elmer, Waltham, Mass.) at a density of 100,000 cells/well in 100 microL of growth media (1:1 F-12/DMEM media (Gibco, Carlsbad, Calif.), 10% FBS (Sigma, St. Louis Mo.), 1× Pen/Strep (Gibco, Carlsbad, Calif.), 600 microg/mL Hygromycin (Invitrogen, Carlsbad, Calif.)). Prior to treating with test compound, confluent cells were serum starved for 2 hours at 37° C. in 1:1 F-12/DMEM media, replacing with fresh F-12/DMEM media after 1 hour. […] Cell plates were then incubated for 3 hours at 37° C. for AMG uptake.
# hSGLT1 = molecular target: T2, hSGLT1 (Homo sapiens, UniProt P13866); experiment: SGLT1 functional assay: hSGLT1 IC50 (selectivity counter-screen to the SGLT2 AMG uptake assay); format: cell-based; conditions: individual runs (Run No.)
# T2 sequence (P13866 1-664): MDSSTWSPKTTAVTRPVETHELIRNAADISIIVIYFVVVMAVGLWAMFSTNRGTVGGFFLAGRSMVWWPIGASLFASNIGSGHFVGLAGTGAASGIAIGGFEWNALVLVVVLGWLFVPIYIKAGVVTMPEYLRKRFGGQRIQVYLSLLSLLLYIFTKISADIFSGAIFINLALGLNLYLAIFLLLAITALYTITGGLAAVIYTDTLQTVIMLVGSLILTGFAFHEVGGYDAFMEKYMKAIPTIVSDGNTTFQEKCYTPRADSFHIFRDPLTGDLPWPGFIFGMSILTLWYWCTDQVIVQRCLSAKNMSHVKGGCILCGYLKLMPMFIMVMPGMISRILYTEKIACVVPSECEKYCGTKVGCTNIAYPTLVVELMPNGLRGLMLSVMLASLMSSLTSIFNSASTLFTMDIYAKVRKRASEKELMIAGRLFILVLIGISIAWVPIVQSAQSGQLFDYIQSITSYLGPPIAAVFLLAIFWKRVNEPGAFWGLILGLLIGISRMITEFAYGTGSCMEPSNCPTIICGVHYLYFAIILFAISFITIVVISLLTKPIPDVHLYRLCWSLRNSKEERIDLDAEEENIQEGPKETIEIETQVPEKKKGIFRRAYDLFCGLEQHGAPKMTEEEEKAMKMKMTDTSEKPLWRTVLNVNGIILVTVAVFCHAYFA
# [1] = Pharmacokinetic testing in rats (IV or PO); format: in vivo; conditions: rat; for Vd: read-out: Vss
# Protocol: Examples 1A, 2A, 4A, 12A, and 14A were tested in rats to assess pharmacokinetic parameters including maximum concentration (Cmax), area under the plasma concentration time curve (AUC), clearance (CL), steady state volume of distribution (Vss), half life (t1/2), and bioavailability (F). Male Sprague Dawley rats (˜300 g) were used. Rats received compound by intravenous (IV) or oral gavage (PO) administration and the doses tested including vehicle to formulate dosing solutions are listed in Table 5.
# Following IV or PO administration, 0.2 mL blood was sampled from the jugular vein at various timepoints (Table 5). Twenty microL aliquots of plasma samples and standards were subjected to protein precipitation with acetonitrile containing an internal standard. Samples were vortexed and centrifuged to obtain supernatant which was analyzed by LC-MS/MS. Analyst (Version 1.4.1) was used to measure peak areas and peak area ratios of analyte to internal standard were calculated. LC-MS/MS conditions are as follows: Mass Spectrometer+Source Type was Sciex API 4000−Turbo Spray; HPLC pump was Shimadzu; Autosampler was CTC PAL Autosampler; Injection volume was 3.0 to 10 microL; A gradient was used with mobile phase A: 10 mM ammonium acetate and 1% Isopropyl alcohol in water; B: Acetonitrile; Flowrate 0.300 mL per minute (Column 2.0×30 mm 5 microm LUNA C18 column (phenomenex)). Detection mode was negative.
# A calibration curve was constructed from the peak area ratios of the standards to the internal standard by applying a weighted linear (1/x or 1/x2) regression. The dynamic range of the standard curve was 5.00 ng/mL to 5000 ng/mL.
# Pharmacokinetic parameters were determined from individual animal data using non-compartmental analysis in Watson (version 7.2). Concentrations below the limit of quantitation (BLQ) were recorded as 0 ng/mL for use in calculations.
# The following calculations were used: AUC(0−τ)=Determined using the linear trapezoidal method AUC(0−□)=AUC(0−τ) plus extrapolated area determined by dividing plasma concentration at τ by the slope of the terminal log-linear phase CL=Dose/AUC(0−∞) Vdss=CL×MRT Cmax=Recorded directly from plasma concentration time curve Tmax=Recorded directly from plasma concentration time curve t½=ln(0.5)/slope of the terminal log-linear phase F %=AUC(0−∞)PO per dose/AUC(0−∞)IV per dose C(0)=Extrapolated by linear regression from the apparent distribution phase following IV administration MRT=AUMC(AUC(0−∞)/AUC(0−∞)
# [2] = male, Sprague Dawley, plasma, IV, 2 mg/kg
# [3] = male, Sprague Dawley, plasma, PO, 10 mg/kg, PEG200/0.5% MC
Structure (SMILES),IC50 (human SGLT2),IC50 (hSGLT1),also measured
"COc1ccc(Cc2cc([C@]34OC[C@](CO)(O3)[C@@H](O)[C@H](O)[C@H]4O)ccc2Cl)cc1 [Example 3A, (1S,2S,3S,4R,5S)-5-[4-chloro-3-(4-methoxy-benzyl)-phenyl]-1-hydroxymethyl-6,8-dioxa-bicyclo[3.2.1]octane-2,3,4-triol]",0.479 nM and 0.972 nM and 1.39 nM and 0.811 nM and 0.602 nM and 0.588 nM and 1.35 nM,543 nM and 397 nM and 550 nM and 757 nM and 523 nM and 672 nM and 380 nM,"AUC(0-inf) [1, 2]: 1410 ng·h/mL; half-life [1, 2]: 1.58 h; CL ([1]; IV, 2 mg/kg): 23.8 mL/min/kg; Vss ([1]; IV, 2 mg/kg): 1.82 L/kg"
"COc1ccc(Cc2cc([C@]34OC[C@](CO)(O3)[C@@H](O)[C@H](O)[C@@H]4O)ccc2F)cc1 [Example 5B, (1S,2S,3S,4S,5S)-5-[4-fluoro-3-(4-methoxy-benzyl)-phenyl]-1-hydroxymethyl-6,8-dioxa-bicyclo[3.2.1]octane-2,3,4-triol]",186 nM,> 10000 nM,
"CCOc1ccc(Cc2cc([C@]34OC[C@](CO)(O3)[C@@H](O)[C@H](O)[C@@H]4O)ccc2Cl)cc1 [Example 4B, (1S,2S,3S,4S,5S)-5-[4-chloro-3-(4-ethoxy-benzyl)-phenyl]-1-hydroxymethyl-6,8-dioxa-bicyclo[3.2.1]octane-2,3,4-triol]",122 nM and 66.8 nM and 81.7 nM,> 10000 nM,
"OC[C@@]12CO[C@@](c3ccc(F)c(Cc4ccc(Cl)cc4)c3)(O1)[C@@H](O)[C@@H](O)[C@@H]2O [Example 12B, (1S,2S,3S,4S,5S)-5-[3-(4-chlorobenzyl)-4-fluorophenyl]-1-hydroxymethyl-6,8-dioxabicyclo[3.2.1]octane-2,3,4-triol]",32.3 nM,> 3160 nM,
CCOc1ccc(Cc2cc([C@]34OC[C@](CO)(O3)[C@@H](O)[C@H](O)[C@H]4O)ccc2F)cc1 [Example 10A],,> 10000 nM,
"COc1ccc(Cc2cc([C@]34OC[C@](CO)(O3)[C@@H](O)[C@H](O)[C@H]4O)ccc2F)cc1 [Example 5A, (1S,2S,3S,4R,5S)-5-[4-fluoro-3-(4-methoxy-benzyl)-phenyl]-1-hydroxymethyl-6,8-dioxa-bicyclo[3.2.1]octane-2,3,4-triol]",,> 10000 nM and > 1000 nM and 5790 nM,
"OC[C@@]12CO[C@@](c3ccc(F)c(Cc4ccc(Cl)cc4)c3)(O1)[C@H](O)[C@@H](O)[C@@H]2O [Example 12A, (1S,2S,3S,4R,5S)-5-[3-(4-chlorobenzyl)-4-fluorophenyl]-1-hydroxymethyl-6,8-dioxabicyclo[3.2.1]octane-2,3,4-triol]",,> 10000 nM and 5780 nM,"AUC(0-inf) [1, 2]: 2200 ng·h/mL; clearance [1, 2]: 15.9 mL/min/kg; half-life [1, 2]: 3.9 h; Vd [1, 2]: 3.68 L/kg"
"OC[C@@]12CO[C@@](c3ccc(F)c(Cc4ccc(OC5CCOC5)cc4)c3)(O1)[C@H](O)[C@@H](O)[C@@H]2O (stereo partly drawn) [Example 11A, (1S,2S,3S,4R,5S)-5-{4-fluoro-3-[4-(tetrahydro-furan-3-yloxy)-benzyl]-phenyl}-1-hydroxymethyl-6,8-dioxa-bicyclo[3.2.1]octane-2,3,4-triol]",9.6 nM and 11.9 nM and 19.8 nM and 7.13 nM,> 10000 nM,
"OC[C@@]12CO[C@@](c3ccc(F)c(Cc4ccc(OC5COC5)cc4)c3)(O1)[C@H](O)[C@@H](O)[C@@H]2O [Example 13A, (1S,2S,3S,4R,5S)-5-{4-fluoro-3-[4-(oxetan-3-yloxy)-benzyl]-phenyl}-1-hydroxymethyl-6,8-dioxa-bicyclo[3.2.1]octane-2,3,4-triol]",14.9 nM and 17.8 nM,> 10000 nM,

# Second part, led by results:
IC50 (human SGLT2),IC50 (hSGLT1),Structure (SMILES),also measured
10.6 nM and 6.38 nM and 5.88 nM and 6.11 nM,> 10000 nM,"CCOc1ccc(Cc2cc([C@]34OC[C@](CO)(O3)[C@@H](O)[C@H](O)[C@H]4O)ccc2C#N)cc1 [Example 7A, 2-(4-ethoxybenzyl)-4-((1S,2S,3S,4R,5S)-2,3,4-trihydroxy-1-(hydroxymethyl)-6,8-dioxa-bicyclo[3,2,1]oct-5-yl)-benzonitrile]",
127 nM and 103 nM,> 10000 nM,"CCOc1ccc(Cc2cc([C@]34OC[C@](CO)(O3)[C@@H](O)[C@H](O)[C@@H]4O)ccc2F)cc1 [Example 10B, (1S,2S,3S,4S,5S)-5-[3-(4-ethoxy-benzyl)-4-fluoro-phenyl]-1-hydroxymethyl-6,8-dioxa-bicyclo[3.2.1]octane-2,3,4-triol]",
41.6 nM and 40.8 nM and 27.9 nM and 62.2 nM,> 10000 nM,"COc1ccc(Cc2cc([C@]34OC[C@](CO)(O3)[C@@H](O)[C@H](O)[C@@H]4O)ccc2Cl)cc1 [Example 3B, (1S,2S,3S,4S,5S)-5-[4-chloro-3-(4-methoxy-benzyl)-phenyl]-1-hydroxymethyl-6,8-dioxa-bicyclo[3.2.1]octane-2,3,4-triol]",
18.7 nM and 9.99 nM and 13.5 nM and 13.4 nM and 5.71 nM and 7.67 nM,> 10000 nM and > 1000 nM and 8930 nM,"COc1ccc(Cc2cc([C@]34OC[C@](CO)(O3)[C@@H](O)[C@H](O)[C@H]4O)ccc2C#N)cc1 [Example 6A, 2-(4-methoxybenzyl)-4-((1S,2S,3S,4R,5S)-2,3,4-trihydroxy-1-(hydroxymethyl)-6,8-dioxa-bicyclo[3,2,1]oct-5-yl)-benzonitrile]",
2.28 nM and 3.12 nM and 2.39 nM and 2.87 nM,> 10000 nM,"OC[C@@]12CO[C@@](c3ccc(Cl)c(Cc4ccc(OC5COC5)cc4)c3)(O1)[C@H](O)[C@@H](O)[C@@H]2O [Example 14A, (1S,2S,3S,4R,5S)-5-{4-chloro-3-[4-(oxetan-3-yloxy)-benzyl]-phenyl}-1-hydroxymethyl-6,8-dioxa-bicyclo[3.2.1]octane-2,3,4-triol]","AUC(0-inf) [1, 2]: 1060 ng·h/mL; clearance [1, 2]: 31.7 mL/min/kg; half-life [1, 2]: 1.36 h; Vd [1, 2]: 1.69 L/kg; AUC(0-inf) [1, 3]: 2290 ng·h/mL; Cmax [1, 3]: 551 ng/mL; half-life [1, 3]: 1.71 h; F ([1]; PO, 10 mg/kg, PEG200/0.5% MC): 43.5%"
